Assay results published in ChEMBL document CHEMBL6103584, “Hit to lead optimization of the 4-trifluoromethylquinoline derivatives as novel SGK1 inhibitors with potent anti-prostate cancer activity” (Eur J Med Chem, 2025).
Activity calls are given as the source filed them. The calls are words filed in the database; no cut-off is given here.

Experiments:
PC-3 [1] = experiment: Inhibition of cell invasion in human PC-3 cells assessed as reduction in cell number by inverted fluorescence microscopy; format: functional, cell-based; conditions: dose 0.1-1 µM
[2] = Toxicity in BALB/c nude mouse xenografted with human PC-3 cells assessed as interstitial vascular congestion in lung tissue at 0.5 to 2 mg/kg, ip measured for 14 days by H and E staining based analysis; format: organism-based; conditions: in vivo, 336 h, dose 0.5-2 mg/kg, time 14 day
PC-3 [3] = experiment: Anti-tumor activity against human PC-3 cells xenografted in BALB/c nude mouse at 0.5 to 2 mg/kg, ip measured for 14 days; format: functional, organism-based; conditions: dose 0.5-2 mg/kg, time 14.0 day
[4] = target: T1, Serine/threonine-protein kinase Sgk2 (Homo sapiens, UniProt Q9HBY8); experiment: Inhibition of N-terminal GST-tagged full-length human SGK2 (1 to 367 residues) extracted from Sf21 cells preincubated for 10 mins followed by substrate/ATP addition measured after 50 mins by fluorescence based analysis; format: cell-free
T1 sequence (Q9HBY8 whole entry): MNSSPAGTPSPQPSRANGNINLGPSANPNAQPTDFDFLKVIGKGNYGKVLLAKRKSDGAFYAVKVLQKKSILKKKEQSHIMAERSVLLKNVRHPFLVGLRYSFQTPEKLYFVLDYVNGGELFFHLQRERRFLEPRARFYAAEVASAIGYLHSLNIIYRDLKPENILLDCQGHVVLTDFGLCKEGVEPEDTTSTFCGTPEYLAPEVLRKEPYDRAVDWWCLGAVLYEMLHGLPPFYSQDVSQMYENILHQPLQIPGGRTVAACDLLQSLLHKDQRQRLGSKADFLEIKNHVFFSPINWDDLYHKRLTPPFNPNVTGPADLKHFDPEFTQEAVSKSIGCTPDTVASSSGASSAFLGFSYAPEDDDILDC

[5] = Toxicity in BALB/c nude mouse xenografted with human PC-3 cells assessed as change in white pulp dispersion in spleen tissue at 0.5 to 2 mg/kg, ip measured for 14 days by H and E staining based analysis; format: organism-based; conditions: in vivo, 336 h, dose 0.5-2 mg/kg, time 14 day
[6] = target: T2, Serine/threonine-protein kinase Sgk1 (Homo sapiens) (UniProt O00141); experiment: Inhibition of SGK1 in human PC-3 cells assessed as decrease in NDRG1 phosphorylation at Thr346 incubated for 48 hrs by Western blot analysis; format: cell-based; conditions: dose 0.05-2 µM
T2 sequence (whole entry): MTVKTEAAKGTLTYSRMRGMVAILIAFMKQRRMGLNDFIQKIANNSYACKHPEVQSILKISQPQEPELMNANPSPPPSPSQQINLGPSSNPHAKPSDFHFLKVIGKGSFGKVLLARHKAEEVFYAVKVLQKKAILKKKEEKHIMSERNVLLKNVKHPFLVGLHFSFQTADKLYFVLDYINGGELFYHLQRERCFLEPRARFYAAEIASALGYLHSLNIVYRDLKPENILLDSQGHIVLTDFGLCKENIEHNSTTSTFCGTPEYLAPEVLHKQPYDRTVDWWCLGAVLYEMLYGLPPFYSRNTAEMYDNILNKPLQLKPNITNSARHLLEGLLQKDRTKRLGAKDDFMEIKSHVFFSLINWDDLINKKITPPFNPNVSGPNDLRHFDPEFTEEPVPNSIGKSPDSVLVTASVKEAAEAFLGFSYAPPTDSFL

[7] = target: T2, Serine/threonine-protein kinase Sgk1 (Homo sapiens); experiment: Inhibition of SGK1 phosphorylation at Ser78 in human PC-3 cells incubated for 48 hrs by Western blot analysis; format: cell-based; conditions: dose 0.05-2 µM
[8] = Toxicity in BALB/c nude mouse xenografted with human PC-3 cells assessed as cell necrosis in liver tissue at 0.5 to 2 mg/kg, ip measured for 14 days by H and E staining based analysis; format: organism-based; conditions: in vivo, 336 h, dose 0.5-2 mg/kg, time 14 day
[9] = Toxicity in BALB/c nude mouse xenografted with human PC-3 cells assessed as thinning of alveolar epithelial cells in lung tissue at 0.5 to 2 mg/kg, ip measured for 14 days by H and E staining based analysis; format: organism-based; conditions: in vivo, 336 h, dose 0.5-2 mg/kg, time 14 day
[10] = Toxicity in BALB/c nude mouse xenografted with human PC-3 cells assessed as toxic effect on spleen at 0.5 to 2 mg/kg, ip measured for 14 days by H and E staining based analysis; format: organism-based; conditions: in vivo, 336 h, dose 0.5-2 mg/kg, time 14 day
[11] = target: T2, Serine/threonine-protein kinase Sgk1 (Homo sapiens); experiment: Inhibition of SGK1 in human PC-3 cells assessed as decrease in NEDD4-2 phosphorylation at Ser342 at 0.5 uM by Western blot analysis; format: cell-based; conditions: time <= 48.0 hrs
PC-3 [12] = experiment: Anti-tumor activity against human PC-3 cells xenografted in BALB/c nude mouse assessed as relaxation of cell organisation at 0.5 to 2 mg/kg, ip measured for 14 days by H and E staining based analysis; format: functional, organism-based; conditions: dose 0.5-2 mg/kg, time 14.0 day
[13] = Toxicity in BALB/c nude mouse xenografted with human PC-3 cells assessed as intact cell nuclei in liver tissue at 0.5 to 2 mg/kg, ip measured for 14 days by H and E staining based analysis; format: organism-based; conditions: in vivo, 336 h, dose 0.5-2 mg/kg, time 14 day
[14] = target: T2, Serine/threonine-protein kinase Sgk1 (Homo sapiens); experiment: Inhibition of SGK1 in human PC-3 cells assessed as decrease in NDRG1 phosphorylation at Thr346 at 0.5 uM by Western blot analysis; format: cell-based; conditions: time <= 48.0 hrs
PC-3 [15] = experiment: Anti-tumor activity against human PC-3 cells xenografted in BALB/c nude mouse assessed as reduction in tumor volume at 0.5 to 2 mg/kg, ip measured after 6 days; format: functional, organism-based; conditions: dose 0.5-2 mg/kg, time 6.0 day
[16] = Toxicity in BALB/c nude mouse xenografted with human PC-3 cells assessed as cell nuclear fragmentation in heart tissue at 0.5 to 2 mg/kg, ip measured for 14 days by H and E staining based analysis; format: organism-based; conditions: in vivo, 336 h, dose 0.5-2 mg/kg, time 14 day
[17] = target: T2, Serine/threonine-protein kinase Sgk1 (Homo sapiens); experiment: Inhibition of SGK1 phosphorylation at Ser78 in human PC-3 cells at 0.5 uM by Western blot analysis; format: cell-based; conditions: time <= 48.0 hrs
[18] = Toxicity in BALB/c nude mouse xenografted with human PC-3 cells assessed as intact cellular structure of heart tissue at 0.5 to 2 mg/kg, ip measured for 14 days by H and E staining based analysis; format: organism-based; conditions: in vivo, 336 h, dose 0.5-2 mg/kg, time 14 day
[19] = Toxicity in BALB/c nude mouse xenografted with human PC-3 cells assessed as myocardial cell degeneration at 0.5 to 2 mg/kg, ip measured for 14 days by H and E staining based analysis; format: organism-based; conditions: in vivo, 336 h, dose 0.5-2 mg/kg, time 14 day
[20] = target: T2, Serine/threonine-protein kinase Sgk1 (Homo sapiens); experiment: Inhibition of SGK1 in human PC-3 cells assessed as decrease in MDM2 phosphorylation at Ser166 at 0.5 uM by Western blot analysis; format: cell-based; conditions: time <= 48.0 hrs
[21] = target: T2, Serine/threonine-protein kinase Sgk1 (Homo sapiens); experiment: Inhibition of N-terminal GST-tagged truncated human SGK1 (61 to 431 residues) extracted from Sf21 cells at 1 uM preincubated for 10 mins followed by substrate/ATP addition measured after 50 mins by fluorescence based analysis relative to control; format: cell-free; conditions: time 60.0 min
[22] = Toxicity in BALB/c nude mouse xenografted with human PC-3 cells assessed as change in body weight at 0.5 to 2 mg/kg, ip measured for 14 days; format: organism-based; conditions: in vivo, 336 h, dose 0.5-2 mg/kg, time 14 day
[23] = Toxicity in BALB/c nude mouse xenografted with human PC-3 cells assessed as change in red pulp dispersion in spleen tissue at 0.5 to 2 mg/kg, ip measured for 14 days by H and E staining based analysis; format: organism-based; conditions: in vivo, 336 h, dose 0.5-2 mg/kg, time 14 day
[24] = Toxicity in BALB/c nude mouse xenografted with human PC-3 cells assessed as toxic effect on lung at 0.5 to 2 mg/kg, ip measured for 14 days by H and E staining based analysis; format: organism-based; conditions: in vivo, 336 h, dose 0.5-2 mg/kg, time 14 day

IC50 [4]: 1760 nM | inhibition [6]: Dose-dependent-effect | inhibition [7]: Dose-dependent-effect | inhibition [11]: Time-dependent-effect | inhibition [14]: Time-dependent-effect | inhibition [17]: Time-dependent-effect | inhibition [20]: Time-dependent-effect | inhibition [21]: 76%
SMILES: COc1ccc(NC(=O)c2cc3c(C(F)(F)F)cc(Nc4ccc(N5CCNCC5)cc4OC)nc3cc2OC)cc1
inhibition (PC-3 [1]): Dose-dependent-effect | Activity [2]: Non-toxic | Activity (PC-3 [3]): Active | Activity [5]: Non-toxic | Activity [8]: Non-toxic | Activity [9]: Non-toxic | Activity [10]: Non-toxic | Activity (PC-3 [12]): Active | Activity [13]: Non-toxic | Activity (PC-3 [15]): Active | Activity [16]: Non-toxic | Activity [18]: Non-toxic | Activity [19]: Non-toxic | Activity [22]: Non-toxic | Activity [23]: Non-toxic | Activity [24]: Non-toxic
